{"source": "PubChem BioAssay AID493116", "about": "(Broad Institute, 2011)", "note": "Activity calls are given as the source filed them.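 Rule for the calls: active = falling signal with an AC50 no greater than ten times the top valid dose tested for that sample; inconclusive = flat response with 30 to 70% inhibition, or poor fit; inactive = activity in the rising direction, and the rest.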"}
{"system": "not listed separately", "assay": "AI-2 driven bioluminescence decrease, LuxPQ pathway – strain MM32 LuxS-null, luminescence, dry powder, set 4, mechanism study for V. harveyi quorum sensing inhibitors, dose response (AID 493116)", "conditions": "V. harveyi MM32 AI-2 bioluminescence, 5 h; at 16 µM (top of the series)"}
{"smiles": "CN(C)C(=O)c1ccccc1NS(=O)(=O)c1cn(C)cn1", "activity change, negative = inhibition": "0.78% (inactive)"}
{"smiles": "CCc1ccc(-c2ccc(C(=O)O)n2CC)cc1", "activity change, negative = inhibition": "1.73% (inactive)"}
{"smiles": "CC(=O)Nc1ccccc1NS(=O)(=O)c1cn(C)cn1", "activity change, negative = inhibition": "-2.94% (inactive)"}
{"smiles": "Cn1cnc(S(=O)(=O)Nc2ccccc2F)c1", "activity change, negative = inhibition": "-0.646% (inactive)"}
{"smiles": "COc1ccccc1NS(=O)(=O)c1cn(C)cn1", "activity change, negative = inhibition": "-4.54% (inactive)"}
{"system": "V. harveyi MM32 AI-2 bioluminescence, 5 h", "assay": "AI-2 driven bioluminescence decrease, LuxPQ pathway – strain MM32 LuxS-null, luminescence, dry powder, set 4, mechanism study for V. harveyi quorum sensing inhibitors, dose response (AID 493116)", "conditions": "not given"}
{"smiles": "O=S(=O)(Nc1ccccn1)c1ccc(Oc2ccccc2)cc1", "AC50": "2.25 µM"}
{"smiles": "Cc1ccccc1NS(=O)(=O)c1cn(C)cn1", "AC50": "> 16 µM (inactive)"}
{"smiles": "O=C1C=C/C(=C/Br)O1", "AC50": "2.29 µM"}
{"smiles": "C=Cn1c(C(=O)O)ccc1-c1ccc(OC)cc1", "AC50": "6.14 µM"}
{"smiles": "CCc1ccc(-c2ccc(C(=O)O)n2C)cc1", "AC50": "2.84 µM"}
{"smiles": "O=S(=O)(Nc1cccnc1)c1ccc(Oc2ccccc2)cc1", "AC50": "0.538 µM"}
{"smiles": "C=Cn1c(C(=O)O)ccc1-c1ccc(CC)cc1", "AC50": "2.34 µM"}
{"smiles": "Cn1cnc(S(=O)(=O)Nc2ccc(OC(F)(F)F)cc2)c1", "AC50": "2.39 µM"}
{"smiles": "Cn1cnc(S(=O)(=O)Nc2ccccc2Cl)c1", "AC50": "> 16 µM (inactive)"}
